Results on 14 molecules are retold here after publication PMC5571359, “Screening the Medicines for Malaria Venture Pathogen Box across Multiple Pathogens Reclassifies Starting Points for Open-Source Drug Discovery” (Antimicrobial Agents and Chemotherapy, 2017).

Structures are written as SMILES. pEC50, pIC50: −log10 of the molar value. Like-named read-outs stand apart in the source and are kept apart here.

The test system of one data set is HepG2. The following applies: read-out: HepG2 PBox CC50 µM, cited from earlier work.
In data set [1] the test system is NF54-pfs16-LUC-GFP stage IV gametocytes. The experiment in a line: Plasmodium falciparum late stage gametocyte (LSG) image-based assay. In kind it is cell-based. The following applies: for IC50: Plasmodium falciparum.
In data set [2] the test system is P. falciparum stage V gametocytes. The settings on record: cited from earlier work; for pIC50 / PF stage V GAMS PBox IC50 µM: stage V gametocytes; for pIC50: read-out: PF stage V GAMS PBox IC50.
Another data set deals with P. falciparum ABS. The following applies: cited from earlier work; for pEC50: ChEMBL Data; for pIC50: read-out: Pf 3D7 Pbox IC50.
Data set [3] has as its system Plasmodium falciparum 3D7 asexual blood stage. The experiment in a line: microbe, parasite or virus in culture.
A further data set concerns liver stage. The following applies: cited from earlier work.
A further data set deals with HEK293 cells. The experiment in a line: HEK293 resazurin cell cytotoxicity assay. The following applies: Homo sapiens; for IC50: HEK293, read-out: HEK % Discovery Biology IC50 uM; for inhibition at 20 µM: HEK293, read-out: HEK % Inhibition 20uM/IC50 Discovery Biology; for pIC50: HEK293, read-out: HEK % Inhibition 20uM/IC50 Discovery Biology (IA). A general note: Alamar Blue is a resazurin reagent that responds to reducing activity.

For data set [4], the system named is T. b. brucei 427 bloodstream trypanosomes. The experiment in a line: T. b. brucei resazurin viability assay. The settings on record: Trypanosoma brucei. In kind it is cell-based, Trypanosoma brucei brucei.
The test system of data set [5] is L. donovani MHOM/IN/80/DD8 intracellular amastigotes. The experiment in a line: Leishmania donovani intracellular amastigote assay in THP-1 cells. In kind it is cell-based. The following applies: Leishmania donovani, THP-1, intracellular amastigotes; for IC50: Discovery Biology, some values carry an asterisk, read-out: L, donovani Discovery Biology IC50 µM.
Data set [6] relates to T. cruzi intracellular amastigotes. The experiment in a line: Intracellular anti-Trypanosoma cruzi image-based assay (amastigotes). In kind it is cell-based. The following applies: Trypanosoma cruzi; intracellular amastigotes, Discovery Biology; read-out: T cruzi Discovery Biology IC50.
Setting [7] is: HepG2 CC50, ref Pathogen Box supporting information.
Where [8] appears, read: NF54, read-out: Pf Stage IV GAMS Discovery Biology IC50 µM, stage IV gametocytes, Discovery Biology.
Where [9] appears, read: ref Pathogen Box supporting information.
Where [10] appears, read: TCMDC, read-out: TCMDC (ref 93) EX50.
[11] abbreviates: Pf 3D7, ref Pathogen Box supporting information.
[12] abbreviates: 3D7, read-out: Pf 3D7 Discovery Biology IC50 µM, P. falciparum 3D7 asexual blood stage, Discovery Biology.
Setting [13] is: liver stage, ref Pathogen Box supporting information, read-out: LIVER STAGE Pbox IC50.
The mark [14] stands for this setting: read-out: T b.brucei Discovery Biology IC50.
The mark [15] stands for this setting: NF54, read-out: Pf Stage IV GAMS Discovery Biology IC50 µM, stage IV gametocytes.
[16] abbreviates: ref PBox supporting information.
[17] abbreviates: P. falciparum 3D7, ref PBox supporting information.
Where [18] appears, read: 3D7, read-out: Pf 3D7 Discovery Biology IC50 µM, P. falciparum 3D7 asexual blood stage.
Setting [19] is: ref Pbox supporting information.
Where [20] appears, read: PBox compounds, read-out: IC50 T. brucei brucei (Discovery Biology).

As for `O=C(Nc1ccccc1)c1ccc(-c2cc3ccncc3cc2OC2CCNCC2)s1` [MMV024035], the CC50 in the data set with HepG2 (setting [7]) is more than 7.5 µM. The IC50 (in general, the concentration at which inhibition is half-maximal) in [1] (setting [8]) came to 4.48 µM; in [3] (setting [12]), 0.31 µM; in the data set on HEK293 cells, 6.67 µM. The pIC50 in data set [2] (setting [9]) was 5.64; in the data set with P. falciparum ABS (setting [11]) it was 6.24; in the data set with liver stage (setting [13]), 5.13; in [4] (setting [14]), 5.57. In addition, the pEC50 in the data set with P. falciparum ABS (setting [10]) is 6.19.

On to `Cc1ccc2c(c1C)NC(=O)C21NN=C(c2ccccc2)S1` (centres unmarked) [MMV019189], for which the CC50 with HepG2 (setting [7]) is more than 7.5 µM. For the same molecule, the IC50 in data set [1] (setting [8]) worked out at 1.97 µM; in [3] (setting [12]), 2.28 µM. Moreover, the pIC50 is 6.05 in [2] (setting [9]), 5.95 in the data set with P. falciparum ABS (setting [11]), 6.06 in the data set on liver stage (setting [13]) and 5.33 in data set [4] (setting [14]). For the same molecule, in the data set with P. falciparum ABS (setting [10]), the pEC50 was 6.12.

As for `NS(=O)(=O)c1cccc(-c2ccc3ncc(N4CCOCC4)nc3c2)c1` [MMV023860], the CC50 in the data set with HepG2 (setting [7]) is more than 10 µM. Further, the half-inhibitory concentration (IC50) in [1] (setting [8]) is 2.13 µM; in data set [3] (setting [12]), 0.89 µM. Also, the pIC50 in data set [2] (setting [9]) was 5.88; in the data set on P. falciparum ABS (setting [11]), 5.82; in the data set on liver stage (setting [13]), 5.74. Besides, in the data set with P. falciparum ABS (setting [10]), the pEC50 was 6.00. The inhibition at 20 µM in the data set on HEK293 cells was 40%.

Take `O=C(NCCN1CCCC1)c1cc(NCCN2CCOCC2)nc2ccc(Cl)cc12` [MMV634140]: the IC50 in data set [1] (setting [15]) came to 0.39 µM; in data set [3] (setting [18]), 0.09 µM. In addition, in data set [2] (setting [16]), the “PF stage V GAMS PBox IC50 µM” value is “KTBA”. In addition, the pIC50 in the data set with P. falciparum ABS (setting [17]) is 7.00; with HEK293 cells it was less than 4.70. Further, in the data set on liver stage (setting [19]), the “LIVER STAGE Pbox IC50 µM” value is “KTBA”.

Turning to `CCn1ncc2c(NC3CCOCC3)c(CNC(=O)c3ccnn3C)c(C)nc21` [MMV026356], the CC50 in the data set on HepG2 (setting [16]) was more than 10 µM. Also, the half-maximal inhibitory concentration (IC50) in data set [1] (setting [15]) came out at 0.74 µM; in [3] (setting [18]) it was 0.27 µM. Moreover, the pIC50 is 6.62 in data set [2] (setting [16]), 6.55 in the data set on P. falciparum ABS (setting [17]), 5.80 with liver stage (setting [19]) and less than 4.70 in the data set on HEK293 cells. Besides, the pEC50 in the data set on P. falciparum ABS (P. falciparum, read-out: TCMDC (ref 93) EX50) is 6.28.

As to `COc1ccc(-c2cnc3ccc(NCc4ccc(S(N)(=O)=O)cc4)nn23)cn1` [MMV010545], the CC50 with HepG2 (setting [7]) is more than 10 µM. The IC50 amounted to 1.17 µM in [1] (setting [8]) and 0.58 µM in data set [3] (setting [12]). The pIC50 in [2] (setting [9]) is 5.99; in the data set with P. falciparum ABS (setting [11]), 6.31; in the data set with liver stage (setting [13]), 5.17. In addition, in the data set on P. falciparum ABS (setting [10]), the pEC50 was 6.06.

`CCN(CC)S(=O)(=O)c1ccc(Cl)c(C(=O)Nc2ccc3nc(C)sc3c2)c1` [MMV019721]: in the data set on HepG2 (setting [7]), the CC50 is more than 10 µM. Moreover, the IC50 in data set [1] (setting [8]) came to 0.79 µM; in data set [3] (setting [12]), 0.78 µM. Also, the pIC50 in data set [2] (setting [9]) is 5.41; with P. falciparum ABS (setting [11]) it was 6.30; in the data set with liver stage (setting [13]) it was 5.88. Further, in the data set on P. falciparum ABS (setting [10]), the pEC50 was 6.10.

`COc1ccc(-c2cnc3ccc(N4CCCC4)nn23)cc1OC` [MMV023985]: the CC50 in the data set with HepG2 (setting [7]) is more than 10 µM. Also, the IC50 in data set [1] (setting [8]) is 5.83 µM; in data set [3] (setting [12]) it was 1.99 µM. Further, the figures for the pIC50 (in data set [2] (setting [9]); in the data set with P. falciparum ABS (setting [11]); with liver stage (setting [13])) were 6.39, 6.15 and 6.20, respectively. In addition, the pEC50 in the data set with P. falciparum ABS (setting [10]) was 6.11.

Turning to `CN1CCC(NCc2cccc(-c3ccc(S(=O)(=O)NCc4ccccc4)cc3)c2)CC1` [MMV022029], the CC50 in the data set with HepG2 (setting [7]) was more than 10 µM. The half-inhibitory concentration (IC50) in data set [1] (setting [8]) was 4.04 µM; in [3] (setting [12]) it was 0.69 µM; in data set [5], 5.03 µM. The pIC50 in data set [2] (setting [9]) is 5.85; in the data set on P. falciparum ABS (setting [11]), 6.09; in the data set on liver stage (setting [13]), 5.34; in [4] (setting [20]), 5.62. Besides, the pEC50 with P. falciparum ABS (setting [10]) was 6.16. Besides, the inhibition at 20 µM in the data set on HEK293 cells was 100%.

Consider `O=C(NCCN1CCCC1)c1cc(NCCCCN2CCC(F)(F)CC2)nc2ccc(Cl)cc12` [MMV667494], for which the IC50 in data set [1] (setting [15]) is 0.12 µM; in data set [3] (3D7, read-out: Pf 3D7 Discovery Biology IC50, P. falciparum 3D7 asexual blood stage, nM), less than 0.01 µM. Further, the “PF stage V GAMS PBox IC50 µM” value in data set [2] (setting [16]) is “KTBA”. For the same molecule, the figures for the pIC50 in the data set on P. falciparum ABS (setting [17]) and in the data set on HEK293 cells were 8.15 and less than 4.70, respectively. Also, in the data set on liver stage (setting [19]), the “LIVER STAGE Pbox IC50 µM” value was “KTBA”.

Regarding `N#Cc1ccc(-c2cnc(N)c(-c3ccc(C(N)=O)cc3)n2)cc1` [MMV085499], the CC50 in the data set on HepG2 (setting [16]) was more than 10 µM. The IC50 in data set [1] (setting [15]) was found to be 0.55 µM; in data set [3] (setting [18]), 0.19 µM. For the same molecule, the pIC50 in data set [2] (setting [16]) is 6.85; in the data set with P. falciparum ABS (setting [17]), 7.02; with liver stage (setting [19]) it was 6.55; with HEK293 cells, less than 4.70. In addition, the pEC50 in the data set with P. falciparum ABS (P. falciparum, read-out: NITD (ref 94) EC50) is 7.22.

In the case of `COc1cc(-c2cc(-c3ccc(S(C)(=O)=O)cc3)cnc2N)ccc1O` [MMV010576], the CC50 with HepG2 (setting [7]) is more than 10 µM. Moreover, the IC50 in [1] (setting [8]) worked out at 0.15 µM; in data set [3] (setting [12]), 0.07 µM. Further, the pIC50 in data set [2] (setting [9]) was 7.18; in the data set with P. falciparum ABS (setting [11]), 7.00; in the data set on liver stage (setting [13]), 5.60; in data set [5] (PBox compounds, read-out: IC50 L. donovani (Discovery Biology)) it was 5.29. The pEC50 with P. falciparum ABS (setting [10]) is 7.00.

With `CN(C)c1cc(NC(=O)Nc2ccccc2)c2ccccc2n1` [MMV006901], the CC50 in the data set with HepG2 (setting [7]) was more than 10 µM. In addition, the “activity in the Discovery Biology stage IV gametocyte (LSG) assay” value in [1] is given as “only moderately active”. Further, the pIC50 in [2] (setting [9]) is 5.50; in the data set on P. falciparum ABS (setting [11]), 6.22; in the data set with liver stage (setting [13]), less than 5.00; in data set [4] (setting [20]), 5.47. For the same molecule, the pEC50 in the data set with P. falciparum ABS (NITD, read-out: NITD (ref 94) EC50) is 6.82; in the data set on P. falciparum ABS (setting [10]), 6.39.

Take `O=C(Nc1ccc(N2CCNCC2)cc1)c1ccn2ncc(-c3cccc(Cl)c3)c2n1` [MMV022478]: the CC50 with HepG2 (setting [7]) was more than 10 µM. Further, in data set [1], the “activity in the Discovery Biology stage IV gametocyte (LSG) assay” value was “demonstrate activity”. The IC50 in data set [1] (setting [8]) is 2.89 µM; in data set [3] (setting [12]), 1.29 µM; in the data set on HEK293 cells, 8.11 µM; in [5], 5.02 µM. Besides, the “activity against gametocytes (stage V), PBox supporting information” value in data set [2] (setting [19]) is recorded as “demonstrate activity”. Also, the pIC50 is 6.21 in data set [2] (setting [9]); 6.11 with P. falciparum ABS (setting [11]); less than 5.00 in the data set with liver stage (setting [13]); 5.33 in data set [6]; 5.84 in [4] (setting [20]). For the same molecule, the pEC50 in the data set with P. falciparum ABS (setting [10]) is 6.04.
